Measured values published in article PMC9098866, “Signal transduction in light-oxygen-voltage receptors lacking the active-site glutamine” (Nature Communications, 2022).

Columns and labels:
[1] = target: T1, A. sativa phototropin 1 LOV2 (AsLOV2) (Avena sativa, UniProt O49003, Q513L); experiment: X-ray crystal structure; assay type: binding; conditions: dark-adapted 0.90 A (7PGZ) and blue-light freeze-trapped 0.98 A (7PH0); light: thioadduct with C450 (covalent, modelled noncovalent); sodium acetate pH 4.6-5.0
T1 construct: gene NPH1-1; LOV2 domain residues 404-546 with flanking A'alpha and Jalpha helices; E. coli expression; N-terminal His6-SUMO tag cut by Senp2, leaving N-terminal GEF extension

[2] = target: T2, A. sativa phototropin 1 LOV2 (AsLOV2) (Avena sativa, UniProt O49003); experiment: X-ray crystal structure; assay type: binding; conditions: dark-adapted 1.00 A (7PGX) and blue-light freeze-trapped 1.09 A (7PGY); light: thioadduct with C450 (covalent, not seen in density, modelled noncovalent); sodium acetate pH 4.6-5.0
T2 construct: gene NPH1-1; LOV2 domain residues 404-546 with flanking A'alpha and Jalpha helices; E. coli expression; N-terminal His6-SUMO tag cut by Senp2, leaving N-terminal GEF extension
T2 sequence (O49003 entry or part of it): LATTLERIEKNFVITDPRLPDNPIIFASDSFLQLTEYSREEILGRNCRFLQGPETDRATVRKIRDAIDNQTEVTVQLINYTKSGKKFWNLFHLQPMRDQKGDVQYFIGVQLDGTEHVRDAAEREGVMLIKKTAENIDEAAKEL

T1 sequence (O49003 entry or part of it Q513L): as the sequence (O49003 entry or part of it) above, with Q110L counted along it

In the case of `Cc1cc2nc3c(=O)[nH]c(=O)nc-3n(C[C@H](O)[C@H](O)[C@H](O)COP(=O)(O)O)c2cc1C` [flavin mononucleotide], the X-ray crystal structure [1] is reported as “the cofactors were generally modeled as noncovalently bound oxidized flavin mononucleotides” and the X-ray crystal structure [2] is reported as 7pgx (wild-type, dark), 7pgy (wild-type, light), 7pgz (Q513L, dark), and 7ph0 (Q513L, light).
